Key:
[1] = biological target: human TRPV4 wild-type (hTRPV4-WT) (Homo sapiens, UniProt Q9HBA0); test: Ca2+ imaging; type: cell-based; details: HeLa cells
[2] = biological target: hTRPV4-D546A (Homo sapiens, UniProt Q9HBA0, D546A); test: Ca2+ imaging; type: cell-based; details: for Blocking effect in mutant versus wild-type channel: D546A
[3] = biological target: hTRPV4-Y591H (Homo sapiens, UniProt Q9HBA0, Y591H); test: Ca2+ imaging; type: cell-based
[4] = biological target: hTRPV4-Y591A (Homo sapiens, UniProt Q9HBA0, Y591A); test: Ca2+ imaging; type: cell-based
Chain of hTRPV4-Y591A (Q9HBA0 whole entry Y591A): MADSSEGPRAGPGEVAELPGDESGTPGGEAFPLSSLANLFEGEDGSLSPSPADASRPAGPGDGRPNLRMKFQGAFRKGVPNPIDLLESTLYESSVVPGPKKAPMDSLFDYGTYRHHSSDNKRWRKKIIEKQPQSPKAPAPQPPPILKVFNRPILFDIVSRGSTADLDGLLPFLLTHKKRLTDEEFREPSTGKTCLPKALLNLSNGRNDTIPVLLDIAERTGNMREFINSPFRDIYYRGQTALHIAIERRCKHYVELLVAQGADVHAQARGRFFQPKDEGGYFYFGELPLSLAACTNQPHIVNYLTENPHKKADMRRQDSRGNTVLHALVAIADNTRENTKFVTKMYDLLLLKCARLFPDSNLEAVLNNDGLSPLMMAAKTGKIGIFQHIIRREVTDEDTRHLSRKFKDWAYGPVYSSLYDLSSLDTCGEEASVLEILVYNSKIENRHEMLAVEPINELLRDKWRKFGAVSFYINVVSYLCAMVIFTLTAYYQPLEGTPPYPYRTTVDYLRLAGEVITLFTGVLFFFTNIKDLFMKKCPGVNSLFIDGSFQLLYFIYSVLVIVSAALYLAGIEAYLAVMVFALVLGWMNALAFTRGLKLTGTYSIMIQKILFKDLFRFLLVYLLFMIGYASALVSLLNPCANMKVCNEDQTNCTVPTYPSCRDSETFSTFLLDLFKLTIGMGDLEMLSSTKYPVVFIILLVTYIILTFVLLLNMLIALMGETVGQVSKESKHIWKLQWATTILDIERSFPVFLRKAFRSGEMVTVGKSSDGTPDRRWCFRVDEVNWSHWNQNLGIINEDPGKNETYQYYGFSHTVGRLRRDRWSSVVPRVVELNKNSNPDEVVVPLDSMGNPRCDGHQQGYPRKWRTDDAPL

[5] = test system: TRPV4; details: read-out: IC50 (antagonist); ref Cheung et al., 2017; cited from earlier work

Chain of hTRPV4-D546A (Q9HBA0 whole entry D546A): as the sequence (Q9HBA0 whole entry Y591A) above, with D546A, A591Y counted along it
Chain of hTRPV4-Y591H (Q9HBA0 whole entry Y591H): as the sequence (Q9HBA0 whole entry Y591A) above, with A591H counted along it
Chain of human TRPV4 wild-type (hTRPV4-WT) (Q9HBA0 whole entry): as the sequence (Q9HBA0 whole entry Y591A) above, with A591Y counted along it

## CC(C)C[C@H](NC(=O)c1cc2ccccc2s1)C(=O)N1CCN(C(=O)[C@H](CO)NS(=O)(=O)c2ccc(Cl)cc2Cl)CC1 [GSK1016790A, N‐((1S)‐1‐{[4‐((2S)‐2‐{[(2,4‐Dichlorophenyl)sulfonyl]amino}‐3‐hydroxypropanoyl)‐1‐piperazinyl]carbonyl}‐3‐methylbutyl)‐1‐benzothiophene‐2‐carboxamide]
[1]
  Channel activation by agonist: activated
[2]; TRPV4-D546A, HeLa cells, Ca2+ imaging
  Channel activation by agonist: activated
[3]; hTRPV4-Y591H, 1-nM GSK1016790A
  Channel response to agonist: Neither hTRPV4‐Y591A nor hTRPV4‐Y591H responded
[4]; hTRPV4-Y591A, 1-nM GSK1016790A
  Channel response to agonist: Neither hTRPV4‐Y591A nor hTRPV4‐Y591H responded

## CC(C)(O)c1cnc(N2C[C@@]3(CCC[C@](C)(Cn4cnc5ccc(C#N)cc54)C3)OC2=O)cn1 [GSK2798745]
[5]
  IC50: 16 nM

## N.N.N.N.N.N.N.N.N.N.N.N.N.N.[Cl-].[Cl-].[Cl-].[Cl-].[Cl-].[Cl-].[O-2].[O-2].[Ru+3].[Ru+3].[Ru+4] [ruthenium red]
[2]; 1-nM GSK1016790A, ruthenium red 10 nM to 10 μM
  Blocking effect in mutant versus wild-type channel: not affected
[2]; 30% hypotonic solution, 1-μM ruthenium red
  Blocking effect in mutant versus wild-type channel: not affected
[3]; Y591H, 30% hypotonic solution, 1-μM ruthenium red
  Blocking effect in mutant versus wild-type channel: not affected
[4]; Y591A, 30% hypotonic solution, 1-μM ruthenium red
  Blocking effect in mutant versus wild-type channel: not affected
